Reference: patent publication US20260356821A1, “SOLID FORMS OF AN ERBB INHIBITOR” (Black Diamond Therapeutics, Inc., priority 2023, published 2026)
Values after ≈ are worked out from the molar mass of the structure shown. “Also recorded” adds a separate entry of the source.

What was measured:
Assay type in all cases: physicochemical
[1] = Solubility in aqueous media, 37 °C
Procedure: (§1) X-ray Powder Diffractometer (XRPD): XRPD analysis was performed using a Bruker D8 Advance X-ray powder diffractometer. Analysis was performed using parameters as set forth below.
(§2) High Performance Liquid Chromatograph (HPLC): HPLC analysis was performed using SHIMADZU LC-20AD/Agilent 1260 infinity II Binary Pump. Analysis was performed using parameters as set forth below.
Solubility: 6.39 mg of the L-malate salt Form M (equal to 4 mg free base) was weighed into an 8 mL vial. 2 mL of aqueous media was added, respectively. The suspension was stirred at 37 °C with 400 rpm for 2 h and 24 h. The suspension was taken out after 2 h and 24 h and then centrifuged at 14,000 rpm for 5 min. The supernatant was analyzed by HPLC. The pH of the supernatant was tested. The solids obtained (wet cakes) were characterized by XRPD. Table 3 summarizes the observation of the solubility study.

Hygroscopicity by DVS = conditions: 25 °C
Procedure: as §1
Dynamic Vapor Sorption (DVS): DVS analysis was performed using Intrinsic. Analysis was performed using parameters as set forth below.
Hygroscopicity: The hygroscopicity for Form M was examined by DVS.

[2] = Crystallinity after drying under vacuum
Procedure: as §1
To explore further optimization of the crystallinity of the salt, about 25 mg of dry cake were re-equilibrated in 7 different solvents for 3 days. Solids obtained were analyzed by XRPD and 1H-NMR. […]

[3] = Bulk Stability (solid state; HPLC purity, color, XRPD)
Procedure: as §1, §2
Bulk Stability: Form M was evaluated for bulk stability studies. The bulk stability study was conducted in 3 conditions including 25 °C/92% RH in an open container, 40 °C/75% RH in an open container and 60 °C in a tight container for 1 week, 2 weeks and 4 weeks, respectively.

[4] = 25 °C/92% RH, open container, 1 week
[5] = 40 °C/75% RH, open container, 1 week
[6] = 40 °C/75% RH, open container, 2 weeks
[7] = 40 °C/75% RH, open container, 4 weeks
[8] = 60 °C, tight container, 2 weeks

Structure (SMILES): CN1C[C@H]2C[C@@]2(C#Cc2cc3ncnc(Nc4cccc(Cl)c4F)c3cc2NC(=O)/C=C/CN2CCOCC2)C1 [Form M, (E)-N-(4-((3-chloro-2-fluorophenyl)amino)-7-(((1R,5S)-3-methyl-3-azabicyclo[3.1.0]hexan-1-yl)ethynyl)quinazolin-6-yl)-4-morpholinobut-2-enamide]
- Solubility ([1]; FaSSIF-v1, pH 6.5, 37 °C, 2 h): Degradation
- pH of the supernatant ([1]; FaSSIF-v1, pH 6.5, 37 °C, 2 h): pH 4.9
- Solubility ([1]; FaSSIF-v1, pH 6.5, 37 °C, 24 h): Degradation
- pH of the supernatant ([1]; FaSSIF-v1, pH 6.5, 37 °C, 24 h): pH 4.8
- Solubility ([1]; FeSSIF-v1, pH 5.0, 37 °C, 2 h): Degradation
- pH of the supernatant ([1]; FeSSIF-v1, pH 5.0, 37 °C, 2 h): pH 4.9
- Solubility ([1]; FeSSIF-v1, pH 5.0, 37 °C, 24 h): Degradation
- pH of the supernatant ([1]; FeSSIF-v1, pH 5.0, 37 °C, 24 h): pH 4.8
- pH of the supernatant ([1]; SGF, pH 2.0, 37 °C, 2 h): pH 2.8
- solubility at 2 h ([1]; SGF, pH 2.0, 37 °C, 2 h): > 2000 µg/mL
- pH of the supernatant ([1]; SGF, pH 2.0, 37 °C, 24 h): pH 2.6
- solubility at 24 h ([1]; SGF, pH 2.0, 37 °C, 24 h): > 2000 µg/mL
- pH of the supernatant ([1]; Water, 37 °C, 2 h): pH 4.3
- solubility at 2 h ([1]; Water, 37 °C, 2 h): 1490 µg/mL (≈ 2.65 mM)
- pH of the supernatant ([1]; Water, 37 °C, 24 h): pH 4.3
- solubility at 24 h ([1]; Water, 37 °C, 24 h): 1780 µg/mL (≈ 3.17 mM)
- solubility at 2 h ([1]; aqueous buffer, pH 4.5 (50 mM) acetate buffer, 37 °C, 2 h): > 2000 µg/mL
- solubility at 24 h ([1]; aqueous buffer, pH 4.5 (50 mM) acetate buffer, 37 °C, 24 h): > 2000 µg/mL
- solubility at 2 h ([1]; aqueous buffer, pH 6.8 (50 mM) phosphate buffer, 37 °C, 2 h): 183 µg/mL (≈ 0.326 mM)
- solubility at 24 h ([1]; aqueous buffer, pH 6.8 (50 mM) phosphate buffer, 37 °C, 24 h): 189 µg/mL (≈ 0.336 mM)
- pH of the supernatant ([1]; pH 1.0 (0.1N HCl), 37 °C, 2 h): pH 0.9
- solubility at 2 h ([1]; pH 1.0 (0.1N HCl), 37 °C, 2 h): > 2000 µg/mL
- pH of the supernatant ([1]; pH 1.0 (0.1N HCl), 37 °C, 24 h): pH 0.8
- solubility at 24 h ([1]; pH 1.0 (0.1N HCl), 37 °C, 24 h): > 2000 µg/mL
- pH of the supernatant ([1]; pH 4.5 (50 mM) acetate buffer, 37 °C, 2 h, marked *): pH 4.5*
- pH of the supernatant ([1]; pH 4.5 (50 mM) acetate buffer, 37 °C, 24 h): pH 4.4
- pH of the supernatant ([1]; pH 6.8 (50 mM) phosphate buffer, 37 °C, 2 h): pH 6.2
- pH of the supernatant ([1]; pH 6.8 (50 mM) phosphate buffer, 37 °C, 24 h): pH 6.3
- Desorp. (%) (Hygroscopicity by DVS; 0% RH, first desorption): 0.0%
- Sorp. (%) (Hygroscopicity by DVS; 0% RH, second sorption): 0.0%
- Desorp. (%) (Hygroscopicity by DVS; 10% RH, first desorption): 1.4%
- Sorp. (%) (Hygroscopicity by DVS; 10% RH, second sorption): 0.6%
- Desorp. (%) (Hygroscopicity by DVS; 20% RH, first desorption): 2.5%
- Sorp. (%) (Hygroscopicity by DVS; 20% RH, second sorption): 1.4%
- Desorp. (%) (Hygroscopicity by DVS; 30% RH, first desorption): 3.6%
- Sorp. (%) (Hygroscopicity by DVS; 30% RH, second sorption): 2.2%
- Desorp. (%) (Hygroscopicity by DVS; 40% RH, first desorption): 5.0%
- Sorp. (%) (Hygroscopicity by DVS; 40% RH, first sorption): 4.1%
- Desorp. (%) (Hygroscopicity by DVS; 40% RH, second desorption): 5.2%
- Sorp. (%) (Hygroscopicity by DVS; 40% RH, second sorption): 3.1%
- Desorp. (%) (Hygroscopicity by DVS; 50% RH, first desorption): 6.1%
- Sorp. (%) (Hygroscopicity by DVS; 50% RH, first sorption): 4.4%
- Desorp. (%) (Hygroscopicity by DVS; 50% RH, second desorption): 6.4%
- Sorp. (%) (Hygroscopicity by DVS; 50% RH, second sorption): 4.2%
- Desorp. (%) (Hygroscopicity by DVS; 60% RH, first desorption): 7.4%
- Sorp. (%) (Hygroscopicity by DVS; 60% RH, first sorption): 4.9%
- Desorp. (%) (Hygroscopicity by DVS; 60% RH, second desorption): 7.4%
- Sorp. (%) (Hygroscopicity by DVS; 60% RH, second sorption): 5.6%
- Desorp. (%) (Hygroscopicity by DVS; 70% RH, first desorption): 9.3%
- Sorp. (%) (Hygroscopicity by DVS; 70% RH, first sorption): 5.6%
- Desorp. (%) (Hygroscopicity by DVS; 70% RH, second desorption): 8.7%
- Sorp. (%) (Hygroscopicity by DVS; 70% RH, second sorption): 7.5%
- Desorp. (%) (Hygroscopicity by DVS; 80% RH, first desorption): 13.5%
- Sorp. (%) (Hygroscopicity by DVS; 80% RH, first sorption): 6.9%
- Desorp. (%) (Hygroscopicity by DVS; 80% RH, second desorption): 11.4%
- Sorp. (%) (Hygroscopicity by DVS; 80% RH, second sorption): 9.7%
- Desorp. (%) (Hygroscopicity by DVS; 90% RH, first desorption): 29.5%
- Sorp. (%) (Hygroscopicity by DVS; 90% RH, first sorption): 15.3%
- Desorp. (%) (Hygroscopicity by DVS; 90% RH, second desorption): 20.9%
- Sorp. (%) (Hygroscopicity by DVS; 90% RH, second sorption): 15.8%
- Desorp. (%) (Hygroscopicity by DVS; 95% RH, first desorption): 41.2%
- Sorp. (%) (Hygroscopicity by DVS; 95% RH, first sorption): 41.2%
- Desorp. (%) (Hygroscopicity by DVS; 95% RH, second desorption): 31.5%
- Sorp. (%) (Hygroscopicity by DVS; 95% RH, second sorption): 31.5%
- XRPD after DVS test (Hygroscopicity by DVS; after cycle 40-95-0-95-40% RH): No form change
- DVS (Hygroscopicity by DVS; at 70% RH): 1.5% at 70% RH
- DVS (Hygroscopicity by DVS; at 95% RH): 37.1% at 95% RH
- crystallinity after drying [2]: crystallinity decreased
- Bulk (XRPD) [3, 4]: No form change (Agglomeration)
- Color [3, 4]: No change of color
- Color ([3]; 25 °C/92% RH, open container, 2 weeks): No change of color
- Bulk (XRPD) ([3]; 25 °C/92% RH, open container, 2 weeks, no form change after dried under ambient condition): Sticky sample;; also recorded: No form change after dried under ambient
- Color ([3]; 25 °C/92% RH, open container, 4 weeks): No change of color
- Bulk (XRPD) ([3]; 25 °C/92% RH, open container, 4 weeks, no form change after dried under ambient condition): Sticky sample;; also recorded: No form change after dried under ambient
- Bulk (XRPD) [3, 5]: No form change
- Color [3, 5]: No change of color
- Bulk (XRPD) [3, 6]: No form change
- Color [3, 6]: No change of color
- Bulk (XRPD) [3, 7]: No form change
- Color [3, 7]: No change of color
- Bulk (XRPD) ([3]; 60 °C, tight container, 1 week): No form change (Crystallinity decreased)
- Color ([3]; 60 °C, tight container, 1 week): No change of color
- Bulk (XRPD) [3, 8]: No form change (Crystallinity decreased)
- Color [3, 8]: No change of color
- Color ([3]; 60 °C, tight container, 4 weeks): No change of color
- Bulk (XRPD) ([3]; 60 °C, tight container, 4 weeks, (Crystallinity decreased)): No form change; also recorded: (Crystallinity decreased)
- Initial Purity by HPLC ([3]; initial, before storage): 94.0%
